# Laboratory results: patent publication US20240101584A1, “TARGETED DELIVERY OF 1,2,4,5 TETRAOXANE COMPOUNDS AND THEIR USES” (Westlake University, priority 2021, published 2024)
# System: Jurkat cells
# Experiment: MTT viability assay, Jurkat cells
# Type: cell-based
# Details: Homo sapiens, 48 h incubation, mean, n = 3, read-out: IC50 against Jurkat cells
smiles,measurement,value
"CC(C)(C)C1CCC2(CC1)OOC1(CCC(OC(=O)NCCC[N+](C)(Cc3ccccc3)Cc3ccccc3)CC1)OO2.[I-] (stereo not shown) [Compound 48, N,N-dibenzyl-3-((((12-(tert-butyl)-7,8,15,16-tetraoxadispiro[5.2.59.26]hexadecan-3-yl)oxy)carbonyl)amino)-N-methylpropan-1-aminium iodide]",IC50,1 µM
